According to BindingDB's records for doi:10.1021/acs.jmedchem.0c00899 (Ut Southwestern Medical Center, 2020):

How the values were obtained:
[1] = Inhibition of SCD in human NCI-H1155 cells non-expressing CYP4F11 assessed as reduction in cell viability incubated for 96 hrs by cell titer Glo reagent based assay
[2] = Inhibition of SCD in human NCI-H2122 cells expressing CYP4F11 assessed as reduction in cell viability incubated for 96 hrs by cell titer Glo reagent based assay
[3] = Inhibition of SCD in human H2009 cells non-expressing CYP4F11 assessed as reduction in cell viability incubated for 96 hrs by cell titer Glo reagent based assay

SMILES | IC50 [1] | IC50 [2] | IC50 [3]
Cc1nnc(-c2ccc(N3CCC(Oc4cc(F)ccc4Cl)CC3)nn2)o1 | < 0.01 µM | < 0.01 µM | 
COc1ccc2nc(NC(=O)c3cccnc3)sc2c1 |  | 1.1 µM | 37 µM
COc1ccc2nc(NC(=O)c3ccc(C(=O)N4CCN(C)CC4)cc3)sc2c1 |  | > 50 µM | > 50 µM
O=C(Nc1nc2ccccc2s1)c1cccnc1 |  | 0.26 µM | > 50 µM
O=C(Nc1nc2ccccc2[nH]1)c1ccc(C(=O)c2ccccc2)cc1 |  | 0.042 µM | 1.8 µM
O=C(Nc1nc2ccccc2o1)c1ccc(C(=O)c2ccccc2)cc1 |  | 43 µM | 
O=C(Nc1nccs1)c1ccc(C(=O)c2ccccc2)cc1 |  | 33 µM | > 50 µM
O=C(Nc1ncc(-c2ccccc2)s1)c1ccc(C(=O)c2ccccc2)cc1 |  | 5.8 µM | 5 µM
O=C(Nc1nc(-c2ccccc2)cs1)c1ccc(C(=O)c2ccccc2)cc1 |  | 4.7 µM | 14.9 µM
COc1ccc(C(=O)Nc2nc3cc(N)ccc3s2)cc1 |  | > 50 µM | > 50 µM
COc1ccc2nc(NC(=O)CCc3ccccc3)sc2c1 |  | > 50 µM | 
COc1ccc2nc(NS(=O)(=O)c3ccccc3)sc2c1 |  | > 50 µM | 
